The results in this text go back to patent publication US5091367A, “Analogs of gonadoliberin with improved solubility, methods for their preparation, agents containing them and their use” (Hoechst Aktiengesellschaft, priority 1986, dated 1992).

In brackets after ≈: the same amount, converted by molar mass.

The test system of series [1] is rat super-ovulation. Kind of series: biological activity in rat super-ovulation. In kind it is in vivo.
Series [2] can be described thus: solubility in a neutral buffer used for nasal application. To be noted: well compatible neutral buffer as used for nasal application of protirelin.
In series [3] the test system is Serum testosterone. Kind of series: serum testosterone after Gn-RH antagonist (Table 2). In kind it is in vivo. To be noted: untreated control 3.63 ± 0.59. The source says: The Gn-RH antagonists according to the invention have an inhibitory effect on the formation of lutropin and follitropin and, as a result, also on the synthesis of testosterone and estrogen (see Table 2). They can be employed as high-dose Gn-RH […] in gonadotropin- and steroid-dependent diseases.

With `CCNC(=O)[C@@H]1CCCN1C(=O)[C@H](CCCNC(=N)N)NC(=O)[C@H](CC(C)C)NC(=O)[C@@H](COC(C)(C)C)NC(=O)[C@H](Cc1ccc(O)cc1)NC(=O)[C@H](CO)NC(=O)[C@H](Cc1c[nH]c2ccccc12)NC(=O)[C@H](Cc1cnc[nH]1)NC(=O)[C@@H]1CCC(=O)N1` [Buserelin, Pgl--His--Trp--Ser--Tyr--D-Ser(tBu)--Leu--Arg--Pro--NH--C2 H5, reference compound], the “ED20-50 Super-ovul.” value in series [1] is reported as 3 ng/rat. Moreover, the “Solubility in neutral nasal buffer” value in series [2] is 1.25 mg/mL (≈ 1010 µM).
`CCNC(=O)[C@@H]1CCCN1C(=O)[C@H](CCCNC(=N)N)NC(=O)[C@H](CC(C)C)NC(=O)[C@@H](Cc1c[nH]c2ccccc12)NC(=O)[C@H](Cc1ccc(O)cc1)NC(=O)[C@H](CO)NC(=O)[C@H](Cc1c[nH]c2ccccc12)NC(=O)[C@H](Cc1c[nH]cn1)NC(=O)[C@@H]1CCC(=O)N1` [LH--RH--T, Pgl--His--Trp--Ser--Tyr--D-Trp--Leu--Arg--Pro--NH--C2 H5, reference compound]: in series [1], the “ED20-50 Super-ovul.” value is given as 3 ng/rat.
For `CCNC(=O)[C@@H]1CCCN1C(=O)[C@H](CCCNC(=N)N)NC(=O)[C@H](CC(C)C)NC(=O)[C@@H](CO[C@H]1O[C@H](CO)[C@@H](O)[C@H](O)[C@@H]1O)NC(=O)[C@H](Cc1ccc(O)cc1)NC(=O)[C@H](CO)NC(=O)[C@H](Cc1c[nH]c2ccccc12)NC(=O)[C@H](Cc1c[nH]cn1)NC(=O)[C@@H]1CCC(=O)N1` [Pgl-His-Trp-Ser-Tyr-D-Ser(α-D-Man)-Leu-Arg-Pro-NH-C2 H5], in series [1], the “ED20-50 Super-ovul.” value came to 6 ng/rat. Moreover, the “Solubility in neutral nasal buffer” value in series [2] stood at 62.5 mg/mL (≈ 46500 µM).
For `CCNC(=O)[C@@H]1CCCN1C(=O)[C@H](CCCNC(=N)N)NC(=O)[C@H](CC(C)C)NC(=O)[C@@H](CO[C@@H]1O[C@H](CO)[C@@H](O)[C@H](O)[C@H]1O)NC(=O)[C@H](Cc1ccc(O)cc1)NC(=O)[C@H](CO)NC(=O)[C@H](Cc1c[nH]c2ccccc12)NC(=O)[C@H](Cc1c[nH]cn1)NC(=O)[C@@H]1CCC(=O)N1` [Pgl-His-Trp-Ser-Tyr-D-Ser(β-D-Glc)-Leu-Arg-Pro-NH-C2 H5], in that order: 12 ng/rat and 125.0 mg/mL (≈ 92900 µM).
For `CCNC(=O)[C@@H]1CCCN1C(=O)[C@H](CCCNC(=N)N)NC(=O)[C@H](CC(C)C)NC(=O)[C@@H](CO[C@H]1O[C@@H](C)[C@@H](O)[C@@H](O)[C@@H]1O)NC(=O)[C@H](Cc1ccc(O)cc1)NC(=O)[C@H](CO)NC(=O)[C@H](Cc1c[nH]c2ccccc12)NC(=O)[C@H](Cc1c[nH]cn1)NC(=O)[C@@H]1CCC(=O)N1` [Pgl-His-Trp-Ser-Tyr-D-Ser(β-L-Fuc)-Leu-Arg-Pro-NH-C2 H5] the same measures were 6 ng/rat and 167.0 mg/mL (≈ 126000 µM).
For `CCNC(=O)[C@@H]1CCCN1C(=O)[C@H](CCCNC(=N)N)NC(=O)[C@H](CO[C@H]1O[C@H](CO)[C@@H](O)[C@H](O)[C@@H]1O)NC(=O)[C@@H](Cc1c[nH]c2ccccc12)NC(=O)[C@H](Cc1ccc(O)cc1)NC(=O)[C@H](CO)NC(=O)[C@H](Cc1c[nH]c2ccccc12)NC(=O)[C@H](Cc1c[nH]cn1)NC(=O)[C@@H]1CCC(=O)N1` [Pgl-His-Trp-Ser-Tyr-D-Trp-Ser(α-D-Man)-Arg-Pro-NH-C2 H5], in that order: more than 24 ng/rat and 3.3 mg/mL (≈ 2330 µM).
In the case of `CCNC(=O)[C@@H]1CCCN1C(=O)[C@H](CCCNC(=N)N)NC(=O)[C@H](CO[C@@H]1O[C@H](CO)[C@@H](O)[C@H](O)[C@H]1O)NC(=O)[C@@H](Cc1c[nH]c2ccccc12)NC(=O)[C@H](Cc1ccc(O)cc1)NC(=O)[C@H](CO)NC(=O)[C@H](Cc1c[nH]c2ccccc12)NC(=O)[C@H](Cc1c[nH]cn1)NC(=O)[C@@H]1CCC(=O)N1` [Pgl-His-Trp-Ser-Tyr-D-Trp-Ser(β-D-Glc)-Arg-Pro-NH-C2 H5], the “ED20-50 Super-ovul.” value in series [1] came out at 6 ng/rat. Further, the “Solubility in neutral nasal buffer” value in series [2] was determined as 2.5 mg/mL (≈ 1760 µM).
For `CCNC(=O)[C@@H]1CCCN1C(=O)[C@H](CCCNC(=N)N)NC(=O)[C@H](CO[C@H]1O[C@@H](C)[C@@H](O)[C@@H](O)[C@@H]1O)NC(=O)[C@@H](Cc1c[nH]c2ccccc12)NC(=O)[C@H](Cc1ccc(O)cc1)NC(=O)[C@H](CO)NC(=O)[C@H](Cc1c[nH]c2ccccc12)NC(=O)[C@H](Cc1c[nH]cn1)NC(=O)[C@@H]1CCC(=O)N1` [Pgl-His-Trp-Ser-Tyr-D-Trp-Ser(β-L-Fuc)-Arg-Pro-NH-C2 H5], in that order: more than 200 ng/rat and 2.5 mg/mL (≈ 1780 µM).
The compound “Ac-D-Nal-p-Cl-D-Phe-D-Trp-Ser-Arg-D-Ser(α-L-Rha)-Leu Arg-Pro-Azagly-NH2” had a Serum testosterone in series [3] of 2.27 ± 0.28 ng/mL.
In series [3], “Ac-D-Nal-p-Cl-D-Phe-D-Trp-Ser-His-D-Ser(α-L-Rha)-Leu-Arg-Pro-Azagly-N H2” gave a Serum testosterone of 1.34 ± 0.17 ng/mL.
With “Pgl--His--Trp--Ser--Tyr--D-Trp--Ser(β-D-Gal)--Arg--Pro--NH--C2 H5”, the “Solubility in neutral nasal buffer” value in series [2] worked out at 10 mg/mL.
On to “Pgl-His-Trp-Ser-Tyr-D-Ser(Ac-α-L-Rha)-Leu-Arg-Pro-NH-C2 H5”, for which the “ED20-50 Super-ovul.” value in series [1] is listed as 3 ng/rat. Further, the “Solubility in neutral nasal buffer” value in series [2] was 50.0 mg/mL.
For “Pgl-His-Trp-Ser-Tyr-D-Ser(Ac-β-L-Fuc)-Leu-Arg-Pro-NH-C2 H5”, in that order: 6 ng/rat and 10.0 mg/mL.
Take “Pgl-His-Trp-Ser-Tyr-D-Ser(D-Ara)-Leu-Arg-Pro-NH-C2 H5”: the “ED20-50 Super-ovul.” value in series [1] is listed as less than 24 ng/rat. In series [2], the “Solubility in neutral nasal buffer” value came to 125 mg/mL.
For “Pgl-His-Trp-Ser-Tyr-D-Ser(D-Rib)-Leu-Arg-Pro-NH-C2 H5” the same measures were less than 6 ng/rat and 10 mg/mL.
For the compound “Pgl-His-Trp-Ser-Tyr-D-Ser(L-Ara)-Leu-Arg-Pro-NH-C2 H5”, the “ED20-50 Super-ovul.” value in series [1] came to 12 ng/rat. In series [2], the “Solubility in neutral nasal buffer” value is 125 mg/mL.
In the case of “Pgl-His-Trp-Ser-Tyr-D-Ser(α-L-Rha)-Leu-Arg-Pro-NH-C2 H5”, in series [1], the “ED20-50 Super-ovul.” value is 3 ng/rat. The “Solubility in neutral nasal buffer” value in series [2] is 167.0 mg/mL.
For “Pgl-His-Trp-Ser-Tyr-D-Ser(β-D-Gal)-Leu-Arg-Pro-NH-C2 H5”, in that order: 12 ng/rat and 125 mg/mL.
For “Pgl-His-Trp-Ser-Tyr-D-Ser(β-D-Glc-NAc)-Leu-Arg-Pro-NH-C2 H5”, in that order: less than 6 ng/rat and 125 mg/mL.
For “Pgl-His-Trp-Ser-Tyr-D-Ser(β-D-Xyl)-Leu-Arg-Pro-NH-C2 H5”, in that order: 6 ng/rat and 50.0 mg/mL.
Take “Pgl-His-Trp-Ser-Tyr-D-Ser(β-L-Xyl)-Leu-Arg-Pro-NH-C2 H5”: the “ED20-50 Super-ovul.” value in series [1] turned out to be 6 ng/rat. The “Solubility in neutral nasal buffer” value in series [2] is 10 mg/mL.
On to “Pgl-His-Trp-Ser-Tyr-D-Ser(β-Lac)-Leu-Arg-Pro-NH-C2 H5”, for which, in series [1], the “ED20-50 Super-ovul.” value was 12 ng/rat. Further, the “Solubility in neutral nasal buffer” value in series [2] came to 167 mg/mL.
As for “Pgl-His-Trp-Ser-Tyr-D-Trp-Ser(Ac2 -α-D-Man)-Arg-Pro-NH-C2 H5”, the “ED20-50 Super-ovul.” value in series [1] is more than 24 ng/rat. In addition, the “Solubility in neutral nasal buffer” value in series [2] was found to be 10.0 mg/mL.
For “Pgl-His-Trp-Ser-Tyr-D-Trp-Ser(Ac2 -β-L-Fuc)-Arg-Pro-NH-C2 H5” the same measures were 200 ng/rat and 3.3 mg/mL.
“Pgl-His-Trp-Ser-Tyr-D-Trp-Ser(Ac-α-D-Man)-Arg-Pro-NH-C2 H5”: the “ED20-50 Super-ovul.” value in series [1] is more than 24 ng/rat. Further, the “Solubility in neutral nasal buffer” value in series [2] was determined as 10.0 mg/mL.
For “Pgl-His-Trp-Ser-Tyr-D-Trp-Ser(Ac-α-L-Rha)-Arg-Pro-NH-C2 H5” the same measures were more than 24 ng/rat and 0.5 mg/mL.
For “Pgl-His-Trp-Ser-Tyr-D-Trp-Ser(Ac-β-D-Glc)-Arg-Pro-NH-C2 H5” the same measures were 5 ng/rat and 2.5 mg/mL.
For “Pgl-His-Trp-Ser-Tyr-D-Trp-Ser(Ac-β-D-Xyl)-Arg-Pro-NH-C2 H5”, in that order: 6 ng/rat and 2.5 mg/mL.
As to “Pgl-His-Trp-Ser-Tyr-D-Trp-Ser(Ac-β-L-Fuc)-Arg-Pro-NH-C2 H5”, the “ED20-50 Super-ovul.” value in series [1] was 200 ng/rat. The “Solubility in neutral nasal buffer” value in series [2] was 10.0 mg/mL.
On to “Pgl-His-Trp-Ser-Tyr-D-Trp-Ser(D-Ara)-Arg-Pro-NH-C2 H5”, for which the “ED20-50 Super-ovul.” value in series [1] was 24 ng/rat. In addition, the “Solubility in neutral nasal buffer” value in series [2] was 5 mg/mL.
As to “Pgl-His-Trp-Ser-Tyr-D-Trp-Ser(D-Rib)-Arg-Pro-NH-C2 H5”, the “ED20-50 Super-ovul.” value in series [1] is reported as less than 24 ng/rat. The “Solubility in neutral nasal buffer” value in series [2] worked out at 25 mg/mL.
For “Pgl-His-Trp-Ser-Tyr-D-Trp-Ser(L-Ara)-Arg-Pro-NH-C2 H5” the same measures were 48 ng/rat and 1.25 mg/mL.
As for “Pgl-His-Trp-Ser-Tyr-D-Trp-Ser(α-L-Rha)-Arg-Pro-NH-C2 H5”, the “ED20-50 Super-ovul.” value in series [1] is on record as more than 24 ng/rat. Further, in series [2], the “Solubility in neutral nasal buffer” value is 1.4 mg/mL.
For “Pgl-His-Trp-Ser-Tyr-D-Trp-Ser(β-D-Glc-NAc)-Arg-Pro-NH-C2 H5” the same measures were more than 24 ng/rat and 125 mg/mL.
In the case of “Pgl-His-Trp-Ser-Tyr-D-Trp-Ser(β-D-Xyl)-Arg-Pro-NH-C2 H5”, the “ED20-50 Super-ovul.” value in series [1] is 6 ng/rat. The “Solubility in neutral nasal buffer” value in series [2] turned out to be 1.7 mg/mL.
For “Pgl-His-Trp-Ser-Tyr-D-Trp-Ser(β-L-Xyl)-Arg-Pro-NH-C2 H5” the same measures were 48 ng/rat and 1.1 mg/mL.
For “Pgl-His-Trp-Ser-Tyr-D-Trp-Ser(β-Lac)-Arg-Pro-NH-C2 H5”, in that order: less than 48 ng/rat and 167 mg/mL.
